How the values were obtained:
Format in all cases: functional
[1] = Antioxidant activity assessed as inhibition of CuSO4-induced human LDL oxidation at 25 uM at 6 hr by thibarbuteric acid assay
[2] = Antioxidant activity assessed as inhibition of linoleic acid oxidation at 10 uM up to 180 min by beta-carotene bleaching assay
[3] = Antioxidant activity assessed as inhibition of CuSO4-induced human LDL oxidation at 25 uM at 2 hr by thibarbuteric acid assay
[4] = Antioxidant activity assessed as inhibition of CuSO4-induced human LDL oxidation at 10 uM at 2 hr by thibarbuteric acid assay
[5] = Antioxidant activity assessed as inhibition of CuSO4-induced human LDL oxidation at 25 uM at 4 hr by thibarbuteric acid assay
[6] = Antioxidant activity assessed as inhibition of CuSO4-induced human LDL oxidation at 10 uM at 4 hr by thibarbuteric acid assay
[7] = Antioxidant activity assessed as inhibition of linoleic acid oxidation at 25 uM up to 180 min by beta-carotene bleaching assay
[8] = Antioxidant activity assessed as inhibition of CuSO4-induced human LDL oxidation at 10 uM at 6 hr by thibarbuteric acid assay

| SMILES | inhibition [1] [%] | inhibition [2] [%] | inhibition [3] [%] | inhibition [4] [%] | inhibition [5] [%] | inhibition [6] [%] | inhibition [7] [%] | inhibition [8] [%] |
| --- | --- | --- | --- | --- | --- | --- | --- | --- |
| O=C(O)[C@H](Cc1c[nH]c2ccccc12)NCCC(=O)N1c2ccccc2C=Cc2ccccc21 | 75.2 | 83.6 | 71.2 | 67.9 | 73.2 | 70.8 | 85.9 | 73.5 |
| CSCC[C@H](NCCC(=O)N1c2ccccc2C=Cc2ccccc21)C(=O)O | 61.6 | 52.6 | 55 | 54.6 | 59.8 | 57.9 | 67.3 | 59.7 |
| O=C(O)[C@@H]1CCCN1CCC(=O)N1c2ccccc2C=Cc2ccccc21 | 17.4 | 4.22 | 13.7 | 11.9 | 14.1 | 13.6 | 6.15 | 15.4 |
| O=C(O)[C@H](Cc1ccc(O)cc1)NCCC(=O)N1c2ccccc2C=Cc2ccccc21 | 83.5 | 86.8 | 73.6 | 70.5 | 79.6 | 75.5 | 89.1 | 78.7 |
| O=C(O)[C@H](CS)NCCC(=O)N1c2ccccc2C=Cc2ccccc21 | 75.8 | 82.2 | 70.5 | 67.3 | 73.4 | 69.8 | 84.4 | 72.5 |
| O=C(O)CNCCC(=O)N1c2ccccc2C=Cc2ccccc21 | 10.3 | 2.96 | 8.24 | 6.71 | 7.92 | 7.95 | 8.8 | 10.2 |
| O=C(CCCl)N1c2ccccc2C=Cc2ccccc21 | 12.4 | 2.89 | 7.43 | 5.34 | 9.77 | 6.87 | 4.24 | 8.87 |
| O=C(O)[C@H](Cc1ccccc1)NCCC(=O)N1c2ccccc2C=Cc2ccccc21 | 18.7 | 5.39 | 13.1 | 9.98 | 16.4 | 11.2 | 8.3 | 13.5 |
| O=C(O)[C@H](Cc1c[nH]cn1)NCCC(=O)N1c2ccccc2C=Cc2ccccc21 | 72.7 | 85 | 68.3 | 56.3 | 70.1 | 65.7 | 86.8 | 68.5 |
| O=C1O[C@H]([C@@H](O)CO)C(O)=C1O | 92.2 | 87.2 | 79.2 | 74.3 | 85.2 | 81.3 | 90.4 | 84.4 |
| O=C(O)[C@@H]1C(O)CCN1CCC(=O)N1c2ccccc2C=Cc2ccccc21 (some centres undefined) | 77.1 | 85.4 | 73.7 | 69.7 | 75.5 | 73.5 | 88.4 | 75.8 |
| C[C@@H](O)[C@H](NCCC(=O)N1c2ccccc2C=Cc2ccccc21)C(=O)O | 61.6 | 53.8 | 56.2 | 53.5 | 59.6 | 55.5 | 76 | 57 |
| C[C@H](NCCC(=O)N1c2ccccc2C=Cc2ccccc21)C(=O)O | 12.1 | 10 | 9.14 | 8.92 | 10.1 | 9.75 | 15.4 | 11 |

— ChEMBL document CHEMBL3045243, “Synthesis of novel 3-chloro-1-(5H-dibenz[b,f]azepine-5yl)propan-1-one derivatives with antioxidant activity” (Med Chem Res, 2011)
